Patent US12679855B2, “Inhibitors of the enzyme enolase for precision oncology” (Board of Regents, The University of Texas System, priority 2019, dated 2026)
Values joined by “and” are separate entries in the source; they are usually repeats but may differ in a detail not shown here. Equal entries are not always repeated. Where two headings read alike, the source gives them in different places.

What was measured:
[1] = test system: glioma cell lines with different ENO1-deletion status; assay: Enolase inhibitor sensitivity across glioma cell lines; assay type: cell-based
Procedure: (§1) Enolase inhibitor sensitivity experiments were performed, using DMEM containing 10% FBS cell culture media. IC50 (expressed in nM) were calculated based on terminal cell density measured by crystal violet after 7 days of growth. […] Left table: POMHEX. Middle table: HEX. Right table: Ratio of sensitivity to POMHEX versus HEX for each cell line.
(§2) (FIG. 19A) ENO1-deleted (D423, red), ENO1-isogenically rescued (D423 ENO1, blue), and ENO1-WT (LN319, grey) cells were treated POMHEX in RPMI media under the same experimental conditions used for NCI-60 screening. […] IC50 (expressed in nM) were calculated based on terminal cell density measured by crystal violet.

[2] = Plasma and organ levels after injection of POMHEX in mice; assay type: in vivo, mouse
Procedure: (§3) FIGS. 3A-3D show the ex-vivo half-life of POMHEX in biological fluids may limit its clinical utility. (FIG. 3A) Ex-vivo half-life of POMHEX in biological fluids. POMHEX has a half-life of ~30 seconds in mouse plasma. The degradation may be prevented by heat inactivation or de-proteinatization with acetonitrile. […] (FIG. 3B) Plasma concentration of HEX and HemiPOMHEX following a single intravenous injection of POMHEX, as a function of time. Mice were injected IV with 10 mg/kg POMHEX and sacrificed at the indicated time points. Each data point represents a single animal. Note, POMHEX itself was below the detection limit (100 nM) even at the earliest time point. It is believed that this may not be reflective of the physiological state as separation of plasma from hematocrit is required for the measurements, which adds approximately 6 minutes of processing time during which POMHEX may be degraded to HemiPOMHEX. (FIG. 3C) The results of the same experiment but performed with an intraperitoneal injection of POMHEX, at a dose of 40 mg/kg. (FIG. 3D) Quantification of POMHEX and its metabolites in mouse organs 24 hrs. after a single intravenous injection of 10 mg/kg POMHEX.
FIGS. 16A-16C show the ex-vivo half-life of POMHEX in biological fluids limits its clinical utility. […] Lower levels of carboxylesterase in human blood results in a longer half-life of POMHEX. (FIG. 16B) Dramatically higher drug exposure in non-human primates as compared to mice following IV injections of POMHEX. Mice (n=3; pooled) and monkeys (n=3; pooled) were injected IV with POMHEX at 10 mg/kg and 2.5 mg/kg, respectively. […] POMHEX was undetectable (<50 nM) even at the earliest time point, in both monkey and mouse experiments; at 98 nM, POMHEX was detectable 1-minute post-injection, but at no time thereafter. […] HEX and HemiPOMHEX were not measured at concentrations higher than 10 mg/kg due to the hazards associated with the derivatization agent, trimethylsilyl-diazomethane in hexane (TMS-DAM). (FIG. 16C) Schematic of POMHEX in circulation when administered IP or IV in mice. […]

[3] = test system: D502 glioma cell line (ENO1-heterozygously deleted); assay: Enolase inhibitor sensitivity (crystal violet), ENO1-heterozygously deleted D502 cells; assay type: cell-based; settings: DMEM 10% FBS, terminal cell density by crystal violet after 7 days
Procedure: as §1, §2
(§4) Cell proliferation assay.

[4] = Human plasma stability assay (31P NMR); assay type: in vitro ADME
Procedure: VCY17 (left) and POMHEX (right) were prepared at 1.5 mM and added to human plasma in an NMR tube with 10% D2O for signal lock. […] As expected, emergence of the second peak after 1 h is due to hydrolysis of the acetyl-protected hydroxamate; the nitroimidazole moiety remains attached (mono-ester phosphonates always show ^31P-chemical shifts <20 ppm); intact phosphoramidate mixed ester was verified by ^31P-^1H HSQC showing resonance with protons at ~5 ppm (—CH2—O—P) and 4 ppm (—CH2—NH—P). Note that VCY17 and de-acetylated VCY17 can come out as doublets: this is because two chiral centers (Phosphorus and C1) yield cis/trans diasteromers.
VCY13 (FIG. 20A) and VCY31 (FIG. 20B) are thioesterase-labile phosphonoamidates. ENO1-deleted (D423, red), ENO1-isogenically rescued (D423 ENO1, blue), and ENO1-WT (LN319, grey) cells were treated with either VCY13 or VCY31 for 5 days. […] (FIG. 20B) VCY31 is a structurally similar pro-drug that uses 2-picolylamine, rather than benzylamine, as a second pro-drug leave group. […] 4 mM VCY31 was dissolved in 80% human plasma, 20% D2O and monitored by ^31P NMR (121 MHz) for 15 hours. Intact VCY31 has a ^31P NMR shift of 33 ppm. Hydrolysis of the thioester begins to occur after 2 hours, as indicated by the emergence of a peak at ~16 ppm.
Human plasma stability assay. POMHEX and VCY17 (1.5 mM) were added to human plasma (Sigma #P9523) in an NMR tube with 10% D2O for signal lock. ^31P NMR measurements (31P CPD, 1000 transients) were conducted every 30 minutes on the first day and every 24 hours, for 4 days afterwards.

[5] = Plasma levels after IV injection of POMHEX in monkeys; assay type: in vivo, monkey
Procedure: FIGS. 16A-16C show the ex-vivo half-life of POMHEX in biological fluids limits its clinical utility. […] Lower levels of carboxylesterase in human blood results in a longer half-life of POMHEX. (FIG. 16B) Dramatically higher drug exposure in non-human primates as compared to mice following IV injections of POMHEX. Mice (n=3; pooled) and monkeys (n=3; pooled) were injected IV with POMHEX at 10 mg/kg and 2.5 mg/kg, respectively. […] POMHEX was undetectable (<50 nM) even at the earliest time point, in both monkey and mouse experiments; at 98 nM, POMHEX was detectable 1-minute post-injection, but at no time thereafter. […] HEX and HemiPOMHEX were not measured at concentrations higher than 10 mg/kg due to the hazards associated with the derivatization agent, trimethylsilyl-diazomethane in hexane (TMS-DAM). (FIG. 16C) Schematic of POMHEX in circulation when administered IP or IV in mice. Due to high levels of plasma carboxylesterase, a gradient decrease in POMHEX away from the site of injection is accompanied by a concurrent increase in HemiPOMHEX.

[6] = test system: U343 glioma cell line (ENO1-heterozygously deleted); assay: Enolase inhibitor sensitivity (crystal violet), ENO1-heterozygously deleted U343 cells; assay type: cell-based; settings: DMEM 10% FBS, terminal cell density by crystal violet after 7 days
Procedure: as §1, §2, §4

[7] = test system: D423 (ENO1-deleted) glioma cells; assay: Cell proliferation assay (crystal violet) in ENO1-deleted glioma cells; assay type: cell-based; settings: 4 days
[8] = Ex-vivo stability in human blood; assay type: in vitro ADME
Procedure: as §3, with “(FIG. 3C) The results of the same experiment but performed with an intraperitoneal injection of POMHEX, at a dose of 40 mg/kg.” left out
FIGS. 16A-16C show the ex-vivo half-life of POMHEX in biological fluids limits its clinical utility. […] HEX and HemiPOMHEX were not measured at concentrations higher than 10 mg/kg due to the hazards associated with the derivatization agent, trimethylsilyl-diazomethane in hexane (TMS-DAM). […]

In the case of CC(C)(C)C(=O)OCOP(=O)(OCOC(=O)C(C)(C)C)C1CCCN(O)C1=O (stereo not shown) [POMHEX], the “specificity towards ENO1-heterozygous deleted cells compared to normal tissue” value [1] is reported as 10 fold, the “sensitivity greater in RPMI as compared to DMEM media” value ([1]; D423, D423 ENO1, LN319 cells, NCI-60 screening conditions) is reported as ~ 3 fold and the “potency of POMHEX greater than HEX, on average” value ([1]; average across glioma cell lines) is reported as ~ 75 fold. The “level in mouse organs” value ([2]; 24 hrs. after a single intravenous injection of 10 mg/kg POMHEX) was “below the quantification limit (BQL)”, the “plasma concentration of POMHEX, mice” value ([2]; IV 10 mg/kg, even at the earliest time point, 10 mg/kg) was < 100 nM and < 50 nM and the IC50 [3] was 82 nM. The “time of hydrolysis to HemiPOMHEX in human plasma” value ([4]; 1.5 mM, human plasma with 10% D2O, 31P NMR) was “less than 1 h”, the “longevity of intact POMHEX” value ([4]; FIG. 15) was 2 h and the “plasma concentration of POMHEX 1-minute post-injection” value ([5]; 1-minute post-injection, species not stated) was 98 nM. For the same compound, the “potentially higher toxicity in monkey” value ([5]; IV 2.5 mg/kg) was “did not materialize”, the “plasma concentration of POMHEX, monkeys” value ([5]; IV 2.5 mg/kg, even at the earliest time point) was < 50 nM and the IC50 [6] was 559 nM. The IC50 ([7]; 1% O2, read-out: IC50 for D423 ENO1-homozygously deleted glioma cells under 1% O2 hypoxia) was ~90 nM and 84 nM, the “potency decrease under 1% O2” value ([7]; 1% O2 versus 21% O2) was ~ 2.5 fold and the IC50 ([7]; normoxia (21% O2), read-out: IC50 for D423 ENO1-homozygously deleted glioma cells under normoxia) was ~40 nM and 31 nM. For the same compound, the “stability in human blood relative to mouse plasma” value [8] was “at least 20 times”.
